{"source": "patent US9486434B2", "about": "“Method for delivery and use of isothiocyanates for prophylaxis and/or therapy of bladder cancer” (Health Research Inc., priority 2010, dated 2016)", "key": {"[1]": {"test_system": "human bladder cancer UM-UC-3 cells", "test": "MTT cell growth and proliferation assay, UM-UC-3 cells", "assay_type": "cell-based", "conditions": "Homo sapiens, read-out: IC50, inhibition of cell proliferation", "experimental": "(§1) FIG. 3. The effect of AITC on cell survival and proliferation. AITC was evaluated at the indicated concentrations in human bladder cancer UM-UC-3 cells, rat bladder cancer AY-27 cells, and normal human bladder epithelial cells (HUC). A. Cell growth inhibition, measured by MTT assay, 72-h AITC treatment. IC50 was calculated from nonlinear regression curve fit. B. Cell cycle arrest (□, subG1; ? , G1; ? , 5; ▪, G2/M), measured by flow cytometry, 24 h AITC treatment. C. Apoptosis induction, measured by an ELISA assay, 24 h AITC treatment. Mean±SE, n=3-6), *P<0.05.\n(§2) FIG. 10. The effect of NAC-AITC on cell survival and proliferation. NAC-AITC was evaluated in both UM-UC-3 cells and AY-27 cells. (A) Chemical structures of AITC and NAC-AITC. (B) Cell growth and proliferation, measured by 3-([…])-2,5-diphenyltetrazolium bromide assay, 72 h treatment with AITC or NAC-AITC at indicated concentrations. IC50 was calculated from the non-linear regression curve fit. (C) Apoptosis, measured by an enzyme-linked immunosorbent assay, 24 h NAC-AITC treatment at 15 µM. (D) Cell cycle (open bars, G1; shaded bars, S; closed bars, G2/M), measured by flow cytometry, 24 h NAC-AITC treatment at 15 μM. *P<, 0.005, compared with control.\n(§3) Assays for cell proliferation, cell cycle arrest and apoptosis. To determine the antiproliferative activity of NAC-AITC, AY-27 cells were grown in 96-well microtiter plates ([…] with 0.15 ml medium per well) for 24 h and then grown for 72 h in fresh medium (0.2 ml/well) containing a series of concentrations of NAC-AITC or solvent. Cell growth was measured at the end of treatment using the 3-([…])-2,5-diphenyltetrazolium bromide assay, from which the half maximal inhibitory concentration (IC50) of NAC-AITC was calculated. AITC was also evaluated for comparison."}, "[2]": {"test_system": "rat bladder cancer AY-27 cells", "test": "MTT cell growth and proliferation assay, AY-27 cells", "assay_type": "cell-based", "conditions": "Rattus norvegicus, read-out: IC50, inhibition of cell proliferation", "experimental": "as §1, §2, §3"}, "[3]": {"test_system": "UM-UC-3 cells", "test": "Apoptosis induction ELISA (histone-associated DNA), UM-UC-3 cells", "assay_type": "cell-based, human", "conditions": "24 h", "experimental": "as §1, §2\n(§4) The effect of NAC-AITC on cell cycle progression was measured by flow cytometry as described previously. […]"}, "[4]": {"test_system": "AY-27 cells", "test": "Apoptosis induction ELISA (histone-associated DNA), AY-27 cells", "assay_type": "cell-based, rat", "conditions": "24 h", "experimental": "as §1, §2, §4"}, "[5]": {"test_system": "orthotopic AY-27 bladder tumor", "test": "Orthotopic rat bladder cancer model", "assay_type": "in vivo, rat (female F344)", "conditions": "for tumor-bearing bladders showing muscle invasion: control 71%", "excerpt": "FIG. 6. […] Female F344 rats were inoculated intravesically with bladder cancer AY-27 cells to initiate development of orthotopic bladder tumor. Oral administration of AITC at 0, 10, 25, 50 and 300 micromols/kg once daily was started 1 day after AY-27 cell inoculation and ended 3 weeks later. The number of rats per group varied from 6 to 33; some of the data, particularly the control group (n=33) and the group treated with the lowest dose of AITC (n=23), were pooled from several experiments. A. The initial and final body weights. B. The weights of bladder tumors. […] C. Percentage of bladders where the tumor invaded the muscle tissue. D. H/E staining of the normal rat bladder wall (D1), a superficial rat bladder tumor (D2), and a rat bladder tumor that invaded the muscle layer (D3).\nFIG. 8. […] Female F344 rats were inoculated with AY-27 cells intravesically via a urethra catheter to initiate development of orthotopic bladder cancer. Oral administration of MSP-1 of vehicle (water) once daily was started 1 day after cancer cell inoculation and ended 3 weeks later. The number of rats per group varied from 11-29. A. Initial (□) and final (▪) body weights. […] Each value in A and B is mean±SEM. C. Percentage of bladder where the tumor invaded the muscle tissue. D. The effects of MSP-1 on selected anticancer targets in UM-UC-3 cells (in vitro), AY-27 cells (in vitro) and AY-27 tumors (in vivo). […] The bladder tumors were removed from rats treated with MSP-1 at the sinigrin doses of 9 or 90 micromols/kg once daily for 3 weeks, started 1 day after cancer cell inoculation. Cell lysates and tumor homogenates were analyzed by Western blotting, using GAPDH as a loading control.\nFIG. 9. […] Female F344 rats were inoculated with bladder cancer AY-27 cells to initiate development of orthotopic bladder tumor. Oral administration of the powder (sinigrin and glucoraphanin: each at 10 micromols/kg) once daily was started 1 day after AY-27 cell inoculation and ended 3 weeks later. The number of rats per group was 9-10. Each value is mean±SE.\nFIG. 12. […] Bladder cancer was initiated in female F344 rats by orthotopic inoculation of bladder cancer AY-27 cells. Oral administration of NAC-AITC at 10 μmmol/kg body wt once daily was started 1 day after cancer cell inoculation and ended 3 weeks later. There were 23 rats in the control group and 15 rats in the treatment group. (A) The initial (open bars) and final (closed bars) body weight. (B) Bladder tumor weight. Each value is a mean±SE. (C) Percentage of bladders where the tumor invaded the muscle tissue.\nAITC was evaluated in an orthotopic rat bladder cancer model. […] Daily oral administration of AITC was initiated one day after instillation of AY-27 cells and continued for 3 weeks. AITC was evaluated at 4 dose levels: 10, 25, 50 and 300 micromols/kg. […] FIG. 6D depicts representative images of normal rat bladder wall (D1), a superficial AY-27 rat bladder tumor (D2), and a muscle-invasive AY-27 rat bladder tumor (D3).\nA syngeneic orthotopic rat bladder cancer model."}, "[6]": {"conditions": "10 μmol/kg body wt oral once daily, 3 weeks"}}, "note": "Read-outs that look alike come from different tables or passages of the source.", "data": [{"smiles": "C=CCN=C=S", "note": "[AITC, allyl isothiocyanate]", "values": [{"measurement": "IC50", "setting": "[1]; UMUC3, 72 h", "value": 2.7, "unit": "µM"}, {"measurement": "IC50", "setting": "[2]; AY-27, 72 h", "value": 3.3, "unit": "µM"}, {"measurement": "increase in cytoplasmic levels of histone-associated DNA", "setting": "[3]; AITC", "value": "up to 3.9 fold"}, {"measurement": "increase in cytoplasmic levels of histone-associated DNA", "setting": "[4]; AITC", "value": "≤ 5.2", "unit": "fold"}, {"measurement": "inhibition of muscle invasion", "setting": "[5]; [6]", "value": 73, "unit": "%"}, {"measurement": "inhibition of tumor growth", "setting": "[5]; [6]", "value": 30, "unit": "%"}, {"measurement": "tumor-bearing bladders showing muscle invasion", "setting": "[5]; AITC 10 micromols/kg", "value": 18.9, "unit": "%"}, {"measurement": "tumor-bearing bladders showing muscle invasion", "setting": "[5]; AITC 25 micromols/kg", "value": 27, "unit": "%"}, {"measurement": "tumor-bearing bladders showing muscle invasion", "setting": "[5]; AITC 50 or 300 micromols/kg", "value": 50, "unit": "%"}, {"measurement": "inhibition of orthotopic bladder cancer growth", "setting": "[5]; AITC 300 micromols/kg oral daily, 3 weeks", "value": 20, "unit": "%"}, {"measurement": "inhibition of tumor growth", "setting": "[5]; AITC lower dose levels (10, 25, 50 micromols/kg) oral daily, 3 weeks", "value": 30, "unit": "%"}]}, {"smiles": "C=CCNC(=S)SC[C@H](NC(C)=O)C(=O)O", "note": "[NAC-AITC, N-acetyl-S—(N-allylthiocarbamoyl)cysteine]", "values": [{"measurement": "IC50", "setting": "[1]; UMUC3, Example 9, 72 h treatment", "value": 7.4, "unit": "µM"}, {"measurement": "IC50", "setting": "[2]; AY-27, Example 9, 72 h treatment", "value": 9.1, "unit": "µM"}, {"measurement": "increase in apoptotic activity", "setting": "[3]; 15 μM", "value": 8.8, "unit": "fold"}, {"measurement": "increase in apoptotic activity", "setting": "[4]; 15 μM", "value": 10.6, "unit": "fold"}, {"measurement": "inhibition of muscle invasion", "setting": "[5]; [6]", "value": 49, "unit": "%"}, {"measurement": "inhibition of tumor growth", "setting": "[5]; [6]", "value": 40, "unit": "%"}, {"measurement": "effect on body weight", "setting": "[5]; NAC-AITC 10 μmol/kg daily, 3 weeks", "value": "no significant effect on body weight"}, {"measurement": "bladders with muscle invasion", "setting": "[5]; NAC-AITC 10 μmol/kg, control 79%", "value": 30, "unit": "%"}]}]}
